Data reported in patent EP2880993A1, “Method of achieving memory and learning improvement by the administration of sialic acid” (ABBOTT LABORATORIES, priority 2013, dated 2015).
“Also recorded” adds a separate entry of the source.

How the values were obtained:
rats [1] = test: Y-maze testing, Example 1 (Retention Trial and Memory Trial); type: in vivo, Sprague-Dawley rat; settings: PND90
Description: In order to establish the role of free sialic acid in cognition, rat pups were supplemented with free N-Acetylneuraminic acid (Neu5Ac) from postnatal day 3 (PND3) and their learning and memory abilities were analyzed later in life. Rat performance in a classical spatial cognitive task (Y-maze) was evaluated once the animals […]. LTP response in hippocampus was also evaluated postnatal day 110 (PND110).
The pups from the second cohort were divided into two groups and given the following designations: the SIA-supplemented group and the Control group. Pups in the SIA - supplemented group were given milk containing low sialic acid, and received a supplementation of free sialic acid since the same day of transfer to the foster mothers until weaning. There were a total of 12 male pups in the SIA -supplemented group. The SIA -supplemented group received free sialic acid supplementation (8 doses/day) in order to reach the same free sialic acid levels as normally reared pups. The amount of free sialic acid given to the SIA-supplemented group was selected to follow the change in concentration of sialic acid in rat milk, ranging from 1.5 g/Kg body weight on day 3 to 0.5 g/Kg body weight at weaning. The amount of sialic acid given to any pup was a maximum of 1.8 mg/Kg body weight on day 8.
The Y-maze is a widely accepted method of testing spatial orientation and memory capabilities in rats. Ten rats in each group were evaluated in the Y-maze. At postnatal day 90 (PND90) for each group, the rats were subjected to a training trial (hereinafter, the "Training Trial"). The approximate equivalent in human years to 90 days of rat life is 10 to 20 years of age. At 5 minutes post training, rats in each group were tested again to test their retention (hereinafter, the "Retention Trial"). At 48 hours post training, rats in each group were tested again to test their memory, (hereinafter, the "Memory Trial").
During the Training Trial, one of the three arms of the Y-maze was blocked, and animals were allowed to explore the other two arms for 15 minutes. During the Retention Trial and the Memory Trial, all three arms were open and animals were allowed to explore for 5 minutes. The amount of time each animal spent at the start of the Y-maze and each arm was evaluated.
During the Memory Trial, performed 48 hours after the Training Trial, a long time spent at the start of the Y-maze denotes anxiety and neophobia. Conversely, the longer time an animal spent at the novel arm indicates an interest in novelty and apparent ability to recognize which arms they had visited previously.

[2] = test system: hippocampal CA3-CAl areas; test: Long-term potentiation (LTP) testing in vivo, Example 1; set-up: species or system Sprague-Dawley rat; settings: PND110; for LTP response evoked by the stimulus, in words: compared with Control Group and Reference Group
Description: Long-term potentiation (LTP) measurements were performed in each of the three groups, i.e., the Control Group, the SIA-supplemented Group and the Reference Group. The testing was done while the animals were alive and at postnatal day 110 (PND110). Postnatal day 110 in rats equates to approximately 10 to 20 years of age in the lifespan of a human. Since hippocampus is a key brain structure related to LTP memory, experiments were done in order to determine the functionality of hippocampus in vivo. Long-term potentiation (LTP) is considered as the electrophysiological base of memory. In these experiments, a higher response indicates better memory potential.
The test was performed after implantation of electrodes in the hippocampal CA3-CAl areas of the rats in each group. There were seven rats per group. Each animal had 4 electrodes inserted and LTP measurements were taken from each electrode. Synaptic field potentials in the CAl area were evoked by paired (40 ms of interval) 100 µs, square, biphasic (negative-positive) pulse applied to Schaffer collaterals. For each animal, the stimulus intensity was set well below the threshold for evoking a population spike, usually 30-40% of the intensity necessary for evoking a maximum field excitatory postsynaptic potential ("fEPSP') response. An excitatory postsynaptic potential (EPSP) is a temporary depolarization of postsynaptic membrane potential caused by the flow of positively charged ions into the postsynaptic cell as a result of opening of ligand-gated ion channels.
To evoke LTP, the following high frequency stimulation (HFS) protocol was used: each animal was subjected to five 200 Hz, 100 ms trains of pulses at a rate of l/s. These trains were presented 6 times in total, at intervals of 1 minutes. After the HFS protocol, fEPSPs were recorded again for 30 minutes. Additional recordings were carried out for 15 minutes during the 3 following days.
FIG. 3 depicts the results of the Long-term Potentiation Testing. FIG. 3 illustrates the results of induction of LTP by the use of a high-frequency stimulation (HFS) protocol. Results correspond to the slope of the field excitatory postsynaptic potential ("fEPSP') evoked by a second electronic pulse (which took place 40 ms after a first pulse). Significant differences (p < 0.05) are indicated by the following signs: "*" indicates the differences between the SIA-supplemented Group and the Control Group; and "†" indicates the differences between the Reference Group and the Control Group. Average baseline fEPSP for each group was assigned the value of 100, and the rest of the fEPSP were referred to that value.

[3] = test system: hippocampal CA3-CAl areas; test: Long-term potentiation (LTP) testing in vivo, Example 2; set-up: species or system Sprague-Dawley rat; settings: 11 months old, FIG. 4; for persistence of LTP induction: after the second day, followed for up to 4 days; for fEPSP values / LTP response evoked after the HFS train, in words: compared with Control group (and NeuAc group)
Description: In order to establish the role of sialylated oligosaccharides in cognition, rat pups were supplemented with 6'-sialyllactose (6'-SL) from postnatal day 3 (PND3) and their learning and memory abilities were analyzed later in life. Rat performance in a classical spatial cognitive task (Y-maze), Novel object Recognition, protocol of spatial learning in the novel Intellicage® system, and Morris water maze were carried out once the animals reached 12 and 14 months of age. LTP response in hippocampus was also evaluated in vivo once the animals reached 11 months of age. The Y-maze, Object Recognition and the IntelliCage® allow the determination of spatial orientation and memory capabilities of experimental animals. The same female rats performed all the tests.
The pups from the second cohort were divided into three groups and given the following designations: the 6'-SL supplemented group, the NeuAc supplemented group and the control group. Initially, each group comprised 20 male pups. Due to premature deaths there were a total of 14 pups in the 6'-SL supplemented group at the end of the lactation. The 6'-SL supplemented group received 6'-SL supplementation (8 doses/day) in order to reach the same sialic acid levels as normally reared pups. The amount of 6'-SL given to the 6'-SL supplemented group was selected to follow the change in concentration of sialic acid in rat milk, ranging from 1.5 g/Kg body weight on day 3 to 0.5 g/Kg body weight at weaning. The maximum amount of sialic acid given to a pup was a maximum of 2 mg/Kg on day 8.
There were a total of 16 male pups in the NeuAc supplemented group at the end of lactation. The NeuAc supplemented group received NeuAc supplementation in order to reach the same sialic acid levels as normally reared pups. The amount of NeuAc given to the NeuAc supplemented group was selected to follow the change in concentration of sialic acid in rat milk, ranging from 1.5 g/Kg body weight on day 3 to 0.5 g/Kg body weight at weaning. The maximum amount of sialic acid given to any pup was 2 mg/Kg on day 8,
Long-term potentiation (LTP) measurements were performed in each of the three groups, i.e., the 6'-SL Supplemented Group, the NeuAc -Supplemented Group and the Control Group. The testing was done while the animals were alive and 11 months old, which is about age 40 in human years. Experiments were done in order to determine the functionality of hippocampus in vivo. […]
To evoke LTP, the following high frequency stimulation (HFS) protocol was used: each animal was subjected to five 200 Hz, 100 ms trains of pulses at a rate of l/s. […] After the HFS protocol, fEPSPs were recorded again for 30 minutes. […]
The HFS train is indicated by the downward arrow. […] The baseline was recorded at 15, 10, and 5 minutes before HFS.

rats [4] = test: Novel Object Recognition testing, Example 2; type: in vivo, Sprague-Dawley rat; settings: 13 months old, retention test one day after acquisition phase, FIG. 5
Description: Perirhinal cortex and hippocampus are involved in the novel object recognition task. Novel Object Recognition Testing was performed when the rats were 13 months old, which corresponds to 45-50 years old for humans. Eight animals were tested.
During a habituation phase of the test, the rats were allowed to explore an "arena" for 20 minutes per day for 3 consecutive days. The arena was a black, open plastic chamber. Next, an acquisition phase took place wherein the animals interfaced with two different objects. These object are defined as "familiar." The rats were allowed to the arena while the familiar objects were present for 10 minutes. One day after the acquisition phase, a retention test was performed on the rats, wherein one of the familiar objects was replaced by a new object. The new object is defined as "novel." The rats were allowed to explore the arena for 5 minutes during the retention test. In theory, animals that remember familiar objects will spend more time exploring the novel object than the familiar one.

rats [5] = test: Y-maze testing, Example 2 (Acquisition Trial and Retention Trial); type: in vivo, Sprague-Dawley rat; settings: 14 months old; for latency to blocked arm: Retention Trial 4 hours after Acquisition Trial, compared with Control group, FIG. 6; for percentage of animals visiting the previously blocked arm first: Retention Trial, compared with control animals, FIG. 7
Description: A Y-maze test was performed when the rats were 14 months old, which corresponds to 50-55 years old in humans. Eight rats in each group were tested. The Y-maze testing was performed in two phases: an Acquisition Trial and a Retention Trial. Rats in each group were evaluated in the Y-maze.
During the Acquisition Trial, one of the three arms of the Y-maze was blocked, and animals were allowed to explore the other two arms for 15 minutes. The Retention Trial took place 4 hours after the Acquisition Trial. During the Retention Trial, all three arms were open and animals were allowed to explore for 5 minutes. The amount of time each animal spent at the start of the Y-maze and each arm was evaluated.

rats [6] = test: Intellicage testing, Example 2; type: in vivo, Sprague-Dawley rat; settings: 14-15 months old, compared with Control group; for visits to the correct corner versus the incorrect corner (performance): FIG. 8
Description: IntelliCage® (NewBehavior AG) is a computer-based, fully automated testing apparatus used to analyze spontaneous and learned behavior. Eight rats in each group were tested. The rats were 14-15 months old, which corresponds to 55-60 years old for humans, when these tests were performed. Animals remain in the cage during several days and behavior is recorded during the entire testing period. Different paradigms can be tested by restricting water access to specific places and time periods. Each animal is assigned a corner where it can access water. Access to the water is only allowed during discrete time periods. Thus, each animal must learn when access to water bottles is allowed and which corner, out of four, has been assigned to it. Access to the corner is controlled by a door that opens only when the assigned rat enters its nose in a hole. […] Access to non-assigned corners remain blocked except during two 90 min periods during the night.

[7] = Memory Trial 48 hours post training, read from FIG. 2

| SMILES | time spent in the novel arm (rats [1]; [7]) | time spent in the start arm (rats [1]; [7]) | Y-maze performance, in words (rats [1]; compared with Reference Group / non-supplemented control animals, listed as free sialic acid) | novel arm preference (percentage of animals that preferred the novel arm first) (rats [1]; Retention Trial 5 minutes post training, pups supplemented PND3 to weaning, read from FIG. 1) | persistence of LTP response ([2]; 72 hours post stimulus) | fEPSP slope after high-frequency stimulation ([2]; average baseline fEPSP assigned the value of 100, FIG. 3) | fEPSP slope forty-eight hours after high-frequency stimulation ([2]; baseline = 100, FIG. 3) | fEPSP slope seventy-two hours after high-frequency stimulation ([2]; baseline = 100, FIG. 3) | fEPSP slope twenty-four hours after high-frequency stimulation ([2]; baseline = 100, FIG. 3) | LTP response evoked by the stimulus, in words [2] | LTP response evoked by the stimulus, in words ([2]; listed as free sialic acid) | persistence of LTP induction [3] | time spent exploring the novel object versus the familiar object (rats [4]; listed as NeuAc) | latency to blocked arm (rats [5]) | percentage of animals visiting the previously blocked arm first (rats [5]) | speed of learning (rats [6]) | visits to the correct corner versus the incorrect corner (performance) (rats [6]) | fEPSP values / LTP response evoked after the HFS train, in words [3] | fEPSP values / LTP response evoked after the HFS train, in words ([3]; listed as 6'SL) | time spent exploring the novel object versus the familiar object (rats [4]) |
| --- | --- | --- | --- | --- | --- | --- | --- | --- | --- | --- | --- | --- | --- | --- | --- | --- | --- | --- | --- | --- |
| CC(=O)N[C@H]1[C@H]([C@H](O)[C@H](O)CO)OC(O)(C(=O)O)C[C@@H]1O (stereo partly shown) [SIA, N-Acetylneuraminic acid] | about 65 seconds | about 40 seconds | performed better and similarly to reference animals | about 57% | remained at high levels | about 220 | ~160 | ~140 | about 205 | strongest response | significantly higher LTP response levels than those of the control group | remaining | significantly more time visiting the novel object than the familiar one; also recorded: distinguish better between the familiar and novel object | lower values of latency to the blocked arm in comparison with Control group | significantly higher than that of the control animals | seemed to learn faster than the Control group | performed better compared to the Control group | – | – | – |
| CC(=O)NC1C(O)CC(OCC2OC(OC3C(CO)OC(O)C(O)C3O)C(O)C(O)C2O)(C(=O)O)OC1C(O)C(O)CO (stereo not shown) [6'-SL, 6'-sialyllactose] | – | – | – | – | – | – | – | – | – | – | – | remaining; also recorded: remained at elevated levels even 4 days post stimulus | – | lower values of latency to the blocked arm in comparison with Control group | significantly higher than that of the control animals | seemed to learn faster than the Control group | performed better compared to the Control group | significantly larger | strongest response; also recorded: significantly higher LTP response levels than those of the control group | significantly more time visiting the novel object than the familiar one; also recorded: distinguish better between the familiar and novel object |
